Laboratory results from patent US10426762B2, “Inhibitors of hepatitis C virus polymerase” (COCRYSTAL DISCOVERY, INC., priority 2012, dated 2019).

Experiments:
HCV1b replicon = experiment: HCV replicon assay (Huh-7 cell line with HCV1b replicon containing luciferase reporter) and EC50 determination; assay type: cell-based; settings: Hepatitis C virus, Huh-7 HCV1b replicon luciferase reporter, 72 hr, triplicate
Method: Example 213—HCV Replicon Assay and EC50 Determination
The antiviral activity of compounds against hepatitis C virus was determined by a hepatitis C virus replicon reporter cell line developed by Bartenschlager (Lohmann et al., Science 1999, 285:110-113; Bartenschlager et al., Antiviral Res 2003, 60:91-102). This cell-based assay utilized a liver cell carcinoma (Huh-7) cell line stably transformed with an HCV1b replicon containing a luciferase reporter gene. Varied concentrations of compounds were added to the reporter cell line, and further incubated at 37° C. for 72 hr in DMEM supplemented with 10% FCS. The inhibitory effects of experimental compounds or the reference compound, interferon alpha (INFα), on HCV replication were measured by luciferase activity using the Britelite™ plus luminescence reporter gene kit (Perkin Elmer, Shelton, Conn.). The Britelite plus reagent was added to the 96-well plates containing the HCV reporter cells, and luminescence was measured within 15 min using a Wallac 1450 Microbeta® Trilux liquid scintillation counter. EC50 values were calculated using GraFit 6 and GraphPad Prism 5 from triplicate HCV replicon assays.

[1] = biological target: T1, HCV1b NS5B polymerase delta 21 (Hepatitis C virus genotype 1b, UniProt P26663); experiment: RNA-dependent RNA HCV NS5B (polymerase) assay and IC50 determination; assay type: biochemical
T1 construct: purified HCV1b NS5B polymerase delta 21
Method: Example 212—RNA-Dependent RNA HCV NS5B (Polymerase) Assay and IC50 Determination
In vitro RNA-dependent RNA polymerase activity was determined in a reaction mixture (50 μL) containing 50 mM Tris-HCl, pH 7.5, 5 mM MgCl2, 1 mM dithiothreitol, 0.5% Triton® X-100, 10 μM of UTP, 0.1-0.5 μCi of α-^32P UTP (Perkin Elmer Life Sciences), 1 μg of polyA:U16 (Midland Oligo), and 0.6 μg of purified HCV1b NS5B polymerase delta 21. Different concentrations of compounds were added to the reaction mixtures. The reaction was carried out at RT (23° C.) for 60 min and then stopped by the addition of 100 μL of 50 mM EDTA. The reaction mixtures were filtered through either a DE81 membrane or a positively charged nylon membrane, and the membranes were then extensively washed with 30 mM sodium citrate, pH 7.0 and 300 mM NaCl. The radiolabeled RNA products were quantitated using a Storm™ PhosphorImager™ (GE life Sciences). IC50 values were calculated using GraFit 6 and GraphPad Prism 5 from triplicate assays.

T1 sequence (P26663 2420-2989): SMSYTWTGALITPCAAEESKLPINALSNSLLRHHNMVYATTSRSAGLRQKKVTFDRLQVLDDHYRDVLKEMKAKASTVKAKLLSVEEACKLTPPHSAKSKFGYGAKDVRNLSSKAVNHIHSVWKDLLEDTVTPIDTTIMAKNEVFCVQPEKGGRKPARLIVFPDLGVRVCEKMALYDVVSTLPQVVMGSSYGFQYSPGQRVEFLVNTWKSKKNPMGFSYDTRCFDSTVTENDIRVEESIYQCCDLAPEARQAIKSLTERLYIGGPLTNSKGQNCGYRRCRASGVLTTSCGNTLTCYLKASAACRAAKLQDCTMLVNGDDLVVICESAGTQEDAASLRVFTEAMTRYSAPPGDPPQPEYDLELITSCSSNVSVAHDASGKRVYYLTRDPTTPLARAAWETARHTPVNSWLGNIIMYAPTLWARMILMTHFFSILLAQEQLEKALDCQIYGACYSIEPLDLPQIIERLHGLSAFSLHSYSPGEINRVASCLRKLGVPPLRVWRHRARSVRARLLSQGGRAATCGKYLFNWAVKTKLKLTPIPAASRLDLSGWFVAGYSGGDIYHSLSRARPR

Row | SMILES | EC50 (HCV1b replicon; Table 1) [nM] | IC50 [1] [µM] | EC50 (HCV1b replicon; Table 2) [nM]
1 | Cc1cc(-c2cc(C3=C(C4CCC(C)CC4)CN(C)CC3)c(C(=O)O)s2)ccc1NC(=O)c1cscn1 (centres unmarked) [Example 178, 5-(3-methyl-4-(thiazole-4-carboxamido)phenyl)-3-(1-methyl-5-(4-methylcyclohexyl)-1,2,3,6-tetrahydropyridin-4-yl)thiophene-2-carboxylic acid] | < 3000 | – | –
2 | COc1cc(-c2cc(C3=C(C4CCC(C)CC4)CN(C)CC3)c(C(=O)O)s2)ccc1NC(=O)c1cscn1 (centres unmarked) [Example 179, 5-(3-methoxy-4-(thiazole-4-carboxamido)phenyl)-3-(1-methyl-5-(4-methylcyclohexyl)-1,2,3,6-tetrahydropyridin-4-yl)thiophene-2-carboxylic acid] | – | < 3 | –
3 | CC1CCC(C2=C(c3cc(-c4ccc(NC(=O)c5cscn5)c(C#N)c4)sc3C(=O)O)CCN(C)C2)CC1 (centres unmarked) [Example 180, 5-(3-cyano-4-(thiazole-4-carboxamido)phenyl)-3-(1-methyl-5-(4-methylcyclohexyl)-1,2,3,6-tetrahydropyridin-4-yl)thiophene-2-carboxylic acid] | < 3000 | – | –
4 | CCc1cc(-c2cc(C3=C(C4CCC(C)CC4)CN(C)CC3)c(C(=O)O)s2)ccc1NC(=O)c1cscn1 (centres unmarked) [Example 181, 5-(3-ethyl-4-(thiazole-4-carboxamido)phenyl)-3-(1-methyl-5-(4-methylcyclohexyl)-1,2,3,6-tetrahydropyridin-4-yl)thiophene-2-carboxylic acid] | – | < 3 | –
5 | CC1CCC(C2=C(c3cc(-c4ccc(NC(=O)c5cscn5)c(Cl)c4)sc3C(=O)O)CCN(C)C2)CC1 (centres unmarked) [Example 182, 5-(3-chloro-4-(thiazole-4-carboxamido)phenyl)-3-(1-methyl-5-(4-methylcyclohexyl)-1,2,3,6-tetrahydropyridin-4-yl)thiophene-2-carboxylic acid] | – | < 3 | –
6 | CC1CCC(C2=C(c3cc(-c4ccc(NC(=O)c5cscn5)c(C(F)(F)F)c4)sc3C(=O)O)CCN(C)C2)CC1 (centres unmarked) [Example 183, 3-(1-methyl-5-(4-methylcyclohexyl)-1,2,3,6-tetrahydropyridin-4-yl)-5-(4-(thiazole-4-carboxamido)-3-(trifluoromethyl)phenyl)thiophene-2-carboxylic acid] | < 3000 | – | –
7 | COc1ccn2nc(-c3ccc(-c4cc(C5=C(C6CCC(C)CC6)CN(C)CC5)c(C(=O)O)s4)cc3)cc2n1 (centres unmarked) [Example 184, 5-(4-(5-methoxypyrazolo[1,5-a]pyrimidin-2-yl)phenyl)-3-(1-methyl-5-(4-methylcyclohexyl)-1,2,3,6-tetrahydropyridin-4-yl)thiophene-2-carboxylic acid] | – | < 3 | –
8 | CC1CCC(C2=C(c3cc(-c4ccc(-c5cc6n(C)c(=O)ccn6n5)cc4)sc3C(=O)O)CCN(C)C2)CC1 (centres unmarked) [Example 185, 3-(1-methyl-5-(4-methylcyclohexyl)-1,2,3,6-tetrahydropyridin-4-yl)-5-(4-(4-methyl-5-oxo-4,5-dihydropyrazolo[1,5-a]pyrimidin-2-yl)phenyl)thiophene-2-carboxylic acid] | < 3000 | – | –
9 | CC1CCC(C2=C(c3cc(-c4ccc(NC(=O)c5cscn5)cc4)sc3C(=O)O)CCN(Cc3cnn(C)c3)C2)CC1 (centres unmarked) [Example 186, 3-(1-((1-methyl-1H-pyrazol-4-yl)methyl)-5-(4-methylcyclohexyl)-1,2,3,6-tetrahydropyridin-4-yl)-5-(4-(thiazole-4-carboxamido)phenyl)thiophene-2-carboxylic acid] | – | < 3 | –
10 | Cc1cc(-c2cc(C3=C(C4CCC(C)CC4)CN(C)CC3)c(C(=O)O)s2)ccc1-c1cc2ncccn2n1 (centres unmarked) [Example 187, 5-(3-methyl-4-(pyrazolo[1,5-a]pyrimidin-2-yl)phenyl)-3-(1-methyl-5-(4-methylcyclohexyl)-1,2,3,6-tetrahydropyridin-4-yl)thiophene-2-carboxylic acid] | – | < 3 | –
11 | CC1CCC(C2=C(c3cc(-c4ccc(NC(=O)c5cscn5)cc4)sc3C(=O)O)CN(CCO)CC2)CC1 (centres unmarked) [Example 188, 3-(1-(2-hydroxyethyl)-4-(4-methylcyclohexyl)-1,2,5,6-tetrahydropyridin-3-yl)-5-(4-(thiazole-4-carboxamido)phenyl)thiophene-2-carboxylic acid] | – | – | < 3000
12 | CC1CCC(C2=C(c3cc(-c4ccc(NC(=O)c5cscn5)cc4)sc3C(=O)O)CN(CC3COC(C)(C)O3)CC2)CC1 (centres unmarked) [Example 189, 3-(1-((2,2-dimethyl-1,3-dioxolan-4-yl)methyl)-4-(4-methylcyclohexyl)-1,2,5,6-tetrahydropyridin-3-yl)-5-(4-(thiazole-4-carboxamido)phenyl)thiophene-2-carboxylic acid] | – | < 3 | –
13 | CC1CCC(C2=C(c3cc(-c4ccc(-c5cc6ncccn6n5)cc4)sc3C(=O)O)CN(CCO)CC2)CC1 (centres unmarked) [Example 191, 3-(1-(2-hydroxyethyl)-4-(4-methylcyclohexyl)-1,2,5,6-tetrahydropyridin-3-yl)-5-(4-(pyrazolo[1,5-a]pyrimidin-2-yl)phenyl)thiophene-2-carboxylic acid] | – | – | < 3000
14 | CC1CCC(C2=C(c3cc(-c4ccc(-c5cc6ncccn6n5)cc4)sc3C(=O)O)CN(CC(O)CO)CC2)CC1 (centres unmarked) [Example 192, 3-(1-(2,3-dihydroxypropyl)-4-(4-methylcyclohexyl)-1,2,5,6-tetrahydropyridin-3-yl)-5-(4-(pyrazolo[1,5-a]pyrimidin-2-yl)phenyl)thiophene-2-carboxylic acid] | – | – | < 3000
15 | CC1CCC(C2=C(c3cc(-c4ccc(NC(=O)c5cscn5)cc4)sc3C(=O)O)CN(Cc3cnn(C)c3)CC2)CC1 (centres unmarked) [Example 193, 3-(1-((1-methyl-1H-pyrazol-4-yl)methyl)-4-(4-methylcyclohexyl)-1,2,5,6-tetrahydropyridin-3-yl)-5-(4-(thiazole-4-carboxamido)phenyl)thiophene-2-carboxylic acid] | – | – | < 3000
16 | CC1CCC(C2=C(c3cc(-c4ccc(-c5cc6ncccn6n5)cc4)sc3C(=O)O)CN(Cc3cnn(C)c3)CC2)CC1 (centres unmarked) [Example 194, 3-(1-((1-methyl-1H-pyrazol-4-yl)methyl)-4-(4-methylcyclohexyl)-1,2,5,6-tetrahydropyridin-3-yl)-5-(4-(pyrazolo[1,5-a]pyrimidin-2-yl)phenyl)thiophene-2-carboxylic acid] | – | – | < 3000
17 | Cc1nn(C)cc1CN1CCC(C2CCC(C)CC2)=C(c2cc(-c3ccc(NC(=O)c4cscn4)cc3)sc2C(=O)O)C1 (centres unmarked) [Example 195, 3-(1-((1,3-dimethyl-1H-pyrazol-4-yl)methyl)-4-(4-methylcyclohexyl)-1,2,5,6-tetrahydropyridin-3-yl)-5-(4-(thiazole-4-carboxamido)phenyl)thiophene-2-carboxylic acid] | – | – | < 3000
18 | Cc1cc(-c2cc(C3=C(C4CCC(C)CC4)CCN(C)C3)c(C(=O)O)s2)ccc1NC(=O)c1cscn1 (centres unmarked) [Example 196, 3-(1-methyl-4-(4-methylcyclohexyl)-1,2,5,6-tetrahydropyridin-3-yl)-5-(3-methyl-4-(thiazole-4-carboxamido)phenyl)thiophene-2-carboxylic acid] | < 3000 | – | –
19 | Cc1cc(-c2cc(C3=C(C4CCC(C)CC4)CCN(CCO)C3)c(C(=O)O)s2)ccc1NC(=O)c1cscn1 (centres unmarked) [Example 197, 3-(1-(2-hydroxyethyl)-4-(4-methylcyclohexyl)-1,2,5,6-tetrahydropyridin-3-yl)-5-(3-methyl-4-(thiazole-4-carboxamido)phenyl)thiophene-2-carboxylic acid] | < 3000 | – | –
20 | CN1CCC(c2cc(-c3ccc(NC(=O)c4cscn4)cc3)sc2C(=O)O)=C(c2ccc(Cl)cc2Cl)C1 [Example 201, 3-(5-(2,4-dichlorophenyl)-1-methyl-1,2,3,6-tetrahydropyridin-4-yl)-5-(4-(thiazole-4-carboxamido)phenyl)thiophene-2-carboxylic acid] | < 3000 | – | –
21 | Cc1ccc(C2=C(c3cc(-c4ccc(NC(=O)c5cscn5)cc4)sc3C(=O)O)CCN(C)C2)cc1 [Example 202, 3-(1-methyl-5-(p-tolyl)-1,2,3,6-tetrahydropyridin-4-yl)-5-(4-(thiazole-4-carboxamido)phenyl)thiophene-2-carboxylic acid] | < 3000 | – | –
22 | CC1CCC(C2=C(c3cc(-c4ccc(NC(=O)c5cscn5)nc4)sc3C(=O)O)CCN(C)C2)CC1 (centres unmarked) [Example 204, 3-(1-methyl-5-(4-methylcyclohexyl)-1,2,3,6-tetrahydropyridin-4-yl)-5-(6-(thiazole-4-carboxamido)pyridin-3-yl)thiophene-2-carboxylic acid] | < 3000 | – | –
23 | CN1CCC(c2cc(-c3ccc(NC(=O)c4cscn4)cc3)sc2C(=O)O)=C(C2CCCCC2)C1 [Example 205, 3-(5-Cyclohexyl-1-methyl-1,2,3,6-tetrahydro-pyridin-4-yl)-5-{4-[(thiazole-4-carbonyl)-amino]-phenyl}-thiophene-2-carboxylic acid] | – | – | < 3000
